Laboratory results published in the supplement of paper PMC13380429.

Columns and labels:
Conditions in all cases: 72 h
Caco-2 [1] = test: cell viability relative to DMSO; higher = less toxic
Calu-3 [2] = test: as above
HepG2 [3] = test: as above
U2OS [4] = test: as above
Vero E6 [5] = test: as above
Caco-2 [6] = test: relative viability EC50 (midpoint between 100% and the lowest measured viability); higher = less toxic
Calu-3 [7] = test: as above
HepG2 [8] = test: as above
U2OS [9] = test: as above
Vero E6 [10] = test: as above
Caco-2 [11] = test: drug sensitivity score (DSS) for viability; higher = more toxic; extreme values may be limits of the assay
Calu-3 [12] = test: as above
HepG2 [13] = test: as above
U2OS [14] = test: as above
Vero E6 [15] = test: as above

Compound	cell viability (Caco-2 [1]; 1 nM) [%]	cell viability (Caco-2 [1]; 10 nM) [%]	cell viability (Caco-2 [1]; 100 nM) [%]	cell viability (Caco-2 [1]; 1000 nM) [%]	cell viability (Caco-2 [1]; 10000 nM) [%]	cell viability (Calu-3 [2]; 1 nM) [%]	cell viability (Calu-3 [2]; 10 nM) [%]	cell viability (Calu-3 [2]; 100 nM) [%]	cell viability (Calu-3 [2]; 1000 nM) [%]	cell viability (Calu-3 [2]; 10000 nM) [%]	cell viability (HepG2 [3]; 1 nM) [%]	cell viability (HepG2 [3]; 10 nM) [%]	cell viability (HepG2 [3]; 100 nM) [%]	cell viability (HepG2 [3]; 1000 nM) [%]	cell viability (HepG2 [3]; 10000 nM) [%]	cell viability (U2OS [4]; 1 nM) [%]	cell viability (U2OS [4]; 10 nM) [%]	cell viability (U2OS [4]; 100 nM) [%]	cell viability (U2OS [4]; 1000 nM) [%]	cell viability (U2OS [4]; 10000 nM) [%]	cell viability (Vero E6 [5]; 1 nM) [%]	cell viability (Vero E6 [5]; 10 nM) [%]	cell viability (Vero E6 [5]; 100 nM) [%]	cell viability (Vero E6 [5]; 1000 nM) [%]	cell viability (Vero E6 [5]; 10000 nM) [%]	relative viability EC50 (Caco-2 [6]) [µM]	relative viability EC50 (Calu-3 [7]) [µM]	relative viability EC50 (HepG2 [8]) [µM]	relative viability EC50 (U2OS [9]) [µM]	relative viability EC50 (Vero E6 [10]) [µM]	drug sensitivity score (Caco-2 [11])	drug sensitivity score (Calu-3 [12])	drug sensitivity score (HepG2 [13])	drug sensitivity score (U2OS [14])	drug sensitivity score (Vero E6 [15])
COC(=O)C1=C(C)N(C)C(C)=C(C(=O)OC)C1c1ccc(C(F)(F)F)cc1 [BAY-W-9798]	91.8	99.4	98.9	97.1	95.4	95.1	103	93.4	98.1	100	96.7	93.3	106	96.3	101	96.9	102	96.4	102	103	93.7	92.5	94.2	96.3	107	> 10	> 10	> 10	> 10	> 10	0	0	0	0	0
N=C(N)SCc1ccc(B(O)O)cc1 [BC-11]	102	101	96.1	108	92.4	92.3	101	105	107	99.6	107	99.7	99.8	88.6	92.8	102	102	98.8	97.1	97.1	108	96.6	97.9	101	99.8	> 10	> 10	> 10	> 10	> 10	0	0	0.4	0	0
NCCCC[C@H](NC(=O)[C@@H](Cc1cc(Br)c(O)c(Br)c1)NC(=O)N1CCC(N2Cc3ccccc3NC2=O)CC1)C(=O)N1CCN(c2ccncc2)CC1 [BIBN4096]	88.6	97	101	90.3	100	93.7	96.9	100	110	105	102	97.2	92.4	97.5	102	95.8	98.5	94.8	84.5	91.6	102	97.2	98.6	99.1	104	> 10	> 10	> 10	> 10	> 10	0	0	0	0.3	0
CCOC(=O)[C@]12CC1/C(=N\O)c1ccccc1O2 (stereo not given in full) [CPCCOEt]	103	94.7	89.2	98.8	104	94.1	105	92.3	98.4	95.4	91.7	102	93.5	104	99.2	98.7	92.2	96.4	94.4	96.4	93.5	99.1	90.6	95.2	110	> 10	> 10	> 10	> 10	> 10	0	0	0	0	0
O=C(c1cc(C2CC2)on1)N(C1CCCCC1)C1CCCCC1 [CYM-5541]	94.9	97.8	97.5	99.4	90	102	98.1	97.2	96.8	99	98.6	93.9	98.4	92.3	89.6	98	97.8	96.3	97.2	94.4	106	103	99.5	95.3	99.6	> 10	> 10	> 10	> 10	> 10	0	0	0	0	0
OC[C@@H](O)[C@@H](O[C@@H]1O[C@H](CO)[C@H](O)[C@H](O)[C@H]1O)[C@H](O)[C@@H](O)CO [D-LACTITOL MONOHYDRATE]	92.3	92.3	98.6	103	97.2	106	94.9	99.6	96.3	93.5	94	105	96.2	89.2	97.4	101	96.9	95.6	99.8	103	100	98.6	95.4	92.8	99.3	> 10	> 10	> 10	> 10	> 10	0	0	0	0	0
CCN(CC)c1ccc(/C=N/NC(=O)c2ccc(O)cc2)cc1 [DY131]	94.3	96.4	98.4	95.4	98.2	95.4	91.5	99.8	97.8	95.3	102	105	95.9	105	83.4	99.6	97.5	101	95.4	97.6	107	98.3	101	102	95.1	> 10	> 10	> 10	> 10	> 10	0	0	0.2	0	0
C[C@]12CCC(=O)C[C@@H]1CC[C@@H]1[C@@H]2CC[C@]2(C)[C@@H](O)CC[C@@H]12 [Dihydrotestosterone]	108	93.1	103	102	97.5	97.6	99.9	101	98.9	94.3	112	95.8	99.3	106	95.3	98.2	104	94.8	103	98.9	106	99.3	101	100	104	> 10	> 10	> 10	> 10	> 10	0	0	0	0	0
c1cc(-c2sc(-c3ccncc3)c(-c3ccncc3)c2-c2ccncc2)ccn1 [GANT-58]	105	99	94.6	92.6	86.6	98.3	94.8	95.3	88.5	106	90.9	102	97.8	118	103	102	99.2	99.8	97.8	99.2	93	106	91.7	96.4	111	> 10	> 10	> 10	> 10	> 10	0.2	0	0	0	0
CC(C)n1nnc2cc(C(=O)O)ccc21 [IBC-293]	102	98	101	106	95.2	94.9	91	100	101	103	93.2	105	91	106	102	102	96	98.3	97.6	98.6	96.6	98.5	102	104	99.5	> 10	> 10	> 10	> 10	> 10	0	0	0	0	0
COC(=O)C[C@H]1CC(c2ccc(O)cc2)=NO1 [ISO-1]	102	103	96.9	93.5	109	100	109	104	99.5	109	104	102	102	103	94.6	95.2	98.9	96.1	106	96.8	106	99.7	97.1	101	98.5	> 10	> 10	> 10	> 10	> 10	0	0	0	0	0
NC1=NC(=O)N([C@H]2C[C@H](O)[C@@H](CO)O2)CN1 [KP-1212]	89.9	104	89	103	99.8	93.3	90.5	94.3	98.9	98.8	99.1	95	100	98.3	93.9	92.6	102	95.5	99.7	103	99.8	98.7	97.9	92.1	105	> 10	> 10	> 10	> 10	> 10	0	0	0	0	0
CC(=O)N[C@@H](Cc1c[nH]c2ccccc12)C(=O)OCc1cc(C(F)(F)F)cc(C(F)(F)F)c1 [L-732,138]	91.7	92.8	96.4	97.5	92.8	95.4	102	92.6	103	102	91.1	106	105	104	105	96.7	94.7	97.4	94.4	99.2	89.1	97.3	86.3	95.3	109	> 10	> 10	> 10	> 10	> 10	0	0	0	0	0
CN(C)C(=O)CCSC(SCCC(=O)O)c1cccc(/C=C/c2ccc3ccc(Cl)cc3n2)c1 (stereo not given) [MK-571]	97.8	92.2	95	92.6	95.2	101	97.5	101	101	104	102	106	97.7	108	95.7	102	101	97.2	94.3	101	98.4	93.5	99.6	99.1	91.5	> 10	> 10	> 10	> 10	> 10	0	0	0	0	0
